In patent US5198445A, “Composition and use of substituted 3-thio-2-propynenitriles as industrial antimicrobials” (The Dow Chemical Company, priority 1992, dated 1993):
Values after ≈ are worked out from the molar mass of the structure shown. Like-named read-outs stand apart in the source and are kept apart here.

Assays:
[1] = system: Klebsiella pneumoniae (Kp); test: MIC in nutrient agar, Klebsiella pneumoniae; assay type: cell-based, Klebsiella pneumoniae ATCC 8308
Description: (§1) The minimum inhibitory concentration (MIC) for the compounds listed in Table I is determined for 9 bacteria, using nutrient agar, and 7 yeast and fungi, using malt yeast agar. A one percent solution of the test compound is prepared in a mixture of acetone and water. Nutrient agar is prepared at pH 6.8, representing a neutral medium, and at pH 8.2, representing an alkaline medium. The nutrient agars are prepared by adding 23 g of nutrient agar to one-liter of deionized water. In addition, the alkaline medium is prepared by adjusting a 0.04M solution of N-[tris-(hydroxymethyl)methyl]-glycine buffered deionized water with concentrated sodium hydroxide to a pH of […]. Malt yeast agar is prepared by adding 3 g yeast extract and 45 g malt agar per liter of deionized water. The specific agar is dispensed in 30 ml aliquots into 25×200 mm test tubes, capped and autoclaved for 15 minutes at 115° C. The test tubes containing the agar are cooled in a water bath until the temperature of the agar is 48° C. Then, an appropriate amount of the one percent solution of the test compound is added (except in the controls where no compound is added) to the respective test tubes so that the final concentrations are 500, 250, 100, 50, 25, 10, 5, 2.5, 1.0 and zero parts per million of the test compound in the agar, thus having a known concentration of test compound dispersed therein. The contents of the test tubes are then transferred to respective petri plates. After drying for 24 hours, the petri plates containing nutrient agar are inoculated with bacteria and those containing malt yeast agar are inoculated with yeast and fungi.
(§2) The inoculation with bacteria is accomplished by using the following procedure. Twenty-four hour-cultures of each of the bacteria are prepared by incubating the respective bacteria in tubes containing nutrient broth for 24 hours at 30° C. in a shaker. Dilutions of each of the 24 hour-cultures are made so that nine separate suspensions (one for each of the nine test bacteria) are made, each containing 10^8 colony forming units (CFU) per ml of suspension of a particular bacteria. Aliquots of 0.3 ml of each of the bacterial suspensions are used to fill the individual wells of Steer's Replicator. For each microbial suspension, 0.3 ml was used to fill three wells (i.e., three wells of 0.3 ml each) so that for the nine different bacteria, 27 wells are filled. The Steer's Replicator is then used to inoculate both the neutral and alkaline pH nutrient agar petri plates.
(§3) The inoculated petri plates are incubated at 30° C. for 48 hours and then read to determine if the test compound which is incorporated into the agar prevented growth of the respective bacteria.
(§4) Table II lists the bacteria, yeast and fungi used in the MIC test described above along with their respective American Type Culture Collection (ATCC) identification numbers.
(§5) The following MIC and MEC antimicrobial tests, whose results are shown in Tables XIII-XVII, are performed using the same methods as described hereinabove.

[2] = system: Pseudomonas aeruginosa (PRD-10); test: MIC in nutrient agar, Pseudomonas aeruginosa PRD-10; assay type: cell-based, Pseudomonas aeruginosa ATCC 15442
Description: as §1, §2, §3, §4, §5

Candida albicans (Ca) = test: MIC in malt yeast agar, Candida albicans; assay type: cell-based, Candida albicans ATCC 10231; conditions: read-out: Minimum Inhibitory Concentration, Ca
Description: as §1
(§6) The inoculation with the yeast and fungi is accomplished as follows. Cultures of yeast and fungi are incubated for seven days on malt yeast agar at 30° C. These cultures are used to prepare suspensions by the following procedure. A suspension of each organism is prepared by adding 10 ml of sterile saline and 10 microliters of octylphenoxy polyethoxy ethanol (TRITON® X-100, a trademark of Rohm & Haas Company) to the agar slant of yeast or fungi. The sterile saline/octylphenoxy polyethoxy ethanol solution is then agitated with a sterile swab to suspend the microorganism grown on the slant. Each resulting suspension is diluted into sterile saline (1 part suspension: 9 parts sterile saline). Aliquots of these dilutions are placed in individual wells of Steer's Replicator and petri plates inoculated as previously described. The petri plates are incubated at 30° C. and read after 48 hours for yeast and 72 hours for fungi.
as §4, §5

Proteus vulgaris (Pv) = test: MIC in nutrient agar, Proteus vulgaris; assay type: cell-based, Proteus vulgaris ATCC 881
Description: as §1, §2, §3, §4, §5

[3] = system: mixture of the bacterial organisms listed in Table II; test: Multiple Challenge Test in styrene-butadiene latex; assay type: cell-based, bacteria listed in Table II; conditions: Styrene-Butadiene Latex Formulation; 10 challenges
Description: (§7) Additionally, the ability of the compounds of Table I to serve as preservatives in a variety of formulated industrial, household, and commercial products is tested using a Multiple Challenge Test Protocol. In this test, the formulations include a styrene-butadiene latex, a tape joint, a hand lotion, and a shampoo. The styrene-butadiene latex test formulation used is Latex DL 238A, available from The Dow Chemical Company. The compositions of the tape joint, hand lotion and shampoo test formulations can be found in Tables V-VII.
(§8) The formulations are separated into 50 g aliquots and placed in sterile bottles. An appropriate amount of a fresh one percent stock solution of the test compound in acetone-water is added to achieve the desired final concentrations. A small portion of each of the test formulations is streaked onto Tryptic Soy Agar (TSA) petri plates using sterile cotton swabs to ensure that the formulations are sterile. If the formulation is sterile, then it is inoculated with 0.1 ml of a mixture of equal aliquots of the 24 hour cultures of each of the bacterial organisms listed in Table II. The test formulations are then incubated at 30° C. After 24 hours, each sample is streaked onto a TSA petri plate using a sterile swab. All plates are then incubated at 30° C. for 48 hours and then rated for microbial growth using the rating system listed in Table VIII. Samples with a rating of 3 or less are reinoculated as described in the procedure for the first inoculation. Samples with a rating of 4 or greater are not reinoculated but after another 24 hours are restreaked on TSA agar.
(§9) The normal interpretation of the results is that a concentration of the antimicrobial being tested is considered to be effective if no ratings greater than a 3 are observed throughout the 10 challenges. The Minimum Effective Concentration (MEC), which is used to compare the activity of the antimicrobial additives in the end-use formulations, is the minimum level that is effective under the conditions of the Multiple Challenge Test.

[4] = system: Staphylococcus aureus (Sa); test: MIC in nutrient agar, Staphylococcus aureus; assay type: cell-based, Staphylococcus aureus ATCC 6538
Description: as §1, §2, §3, §4, §5

[5] = system: mixture of the bacterial organisms listed in Table II; test: Multiple Challenge Test in tape joint formulation; assay type: cell-based, bacteria listed in Table II; conditions: 10 challenges
Description: as §7, §8, §9

[6] = system: Penicillium chrysogenum (Pc); test: MIC in malt yeast agar, Penicillium chrysogenum; assay type: cell-based, Penicillium chrysogenum ATCC 9480; conditions: read-out: Minimum Inhibitory Concentration, Pc
Description: as §1, §6, §4, §5

[7] = pH 6.8, read-out: Minimum Inhibitory Concentration, Kp
[8] = pH 8.2, read-out: Minimum Inhibitory Concentration, Kp
[9] = Pseudomonas aeruginosa, pH 6.8; read-out: Minimum Inhibitory Concentration, PRD
[10] = Pseudomonas aeruginosa, pH 8.2; read-out: Minimum Inhibitory Concentration, PRD
[11] = pH 6.8, read-out: Minimum Inhibitory Concentration, Pv
[12] = pH 8.2, read-out: Minimum Inhibitory Concentration, Pv
[13] = Staphylococcus aureus, pH 6.8; read-out: Minimum Inhibitory Concentration, Sa
[14] = Staphylococcus aureus, pH 8.2, read-out: Minimum Inhibitory Concentration, Sa
[15] = Staphylococcus aureus, pH 6.8, read-out: Minimum Inhibitory Concentration, Sa
[16] = Staphylococcus aureus, pH 8.2; read-out: Minimum Inhibitory Concentration, Sa

## CCSC#CC#N [B, 3-ethylthio-2-propynenitrile]
[1]; [7]
  MIC: 5 µg/mL (≈ 45 µM)
[1]; [8]
  MIC: 5 µg/mL (≈ 45 µM)
[2]; [9]
  MIC: 25 µg/mL (≈ 225 µM)
[2]; [10]
  MIC: 25 µg/mL (≈ 225 µM)
Candida albicans (Ca); malt yeast agar
  MIC: < 1 µg/mL
Proteus vulgaris (Pv); [11]
  MIC: < 1 µg/mL
Proteus vulgaris (Pv); [12]
  MIC: 5 µg/mL (≈ 45 µM)
[3]
  MEC: 25 ppm
[4]; [13]
  MIC: 5 µg/mL (≈ 45 µM)
[4]; [14]
  MIC: 10 µg/mL (≈ 90 µM)
[5]
  MEC: 25 ppm
[6]; malt yeast agar
  MIC: < 1 µg/mL

## N#CC#CSC1CCCC1 [C, 3-cyclopentylthio-2-propynenitrile]
[1]; [7]
  MIC: < 10 µg/mL
[1]; [8]
  MIC: 25 µg/mL (≈ 165 µM)
[2]; [9]
  MIC: 250 µg/mL (≈ 1650 µM)
[2]; [10]
  MIC: 250 µg/mL (≈ 1650 µM)
Proteus vulgaris (Pv); [11]
  MIC: < 10 µg/mL
Proteus vulgaris (Pv); [12]
  MIC: < 10 µg/mL
[3]
  MEC: 100 ppm
[4]; [15]
  MIC: < 10 µg/mL
[4]; [16]
  MIC: < 10 µg/mL
[5]
  MEC: 100 ppm
[6]; malt yeast agar
  MIC: < 1 µg/mL

## CSC#CC#N [Compound A, 3-methylthio-2-propynenitrile]
[1]; [7]
  MIC: 2.5 µg/mL (≈ 25.7 µM)
[1]; [8]
  MIC: 10 µg/mL (≈ 103 µM)
[2]; [9]
  MIC: 2.5 µg/mL (≈ 25.7 µM)
[2]; [10]
  MIC: 5 µg/mL (≈ 51.5 µM)
[2]; pH 8.2
  Minimum Inhibitory Concentration, PRD: 5 ppm
Candida albicans (Ca); malt yeast agar
  MIC: 0.5 µg/mL (≈ 5.15 µM)
Proteus vulgaris (Pv); [11]
  MIC: < 1 µg/mL
Proteus vulgaris (Pv); [12]
  MIC: 2.5 µg/mL (≈ 25.7 µM)
[3]
  MEC: 10 ppm
[4]; [13]
  MIC: 2.5 µg/mL (≈ 25.7 µM)
[4]; [16]
  MIC: 5 µg/mL (≈ 51.5 µM)
[4]; pH 8.2
  Minimum Inhibitory Concentration, Sa: 5 ppm
[5]
  MEC: 10 ppm
[6]; malt yeast agar
  MIC: 0.25 µg/mL (≈ 2.57 µM)

## CSC=C(Cl)C#N [Compound G, 2-chloro-3-(methylthio)-2-propenenitrile]
[1]; [7]
  MIC: 50 µg/mL (≈ 374 µM)
[1]; [8]
  MIC: 10 µg/mL (≈ 74.8 µM)
[2]; Pseudomonas aeruginosa, pH 6.8, read-out: Minimum Inhibitory Concentration, PRD
  MIC: 50 µg/mL (≈ 374 µM)
[2]; Pseudomonas aeruginosa, pH 8.2, read-out: Minimum Inhibitory Concentration, PRD
  MIC: 10 µg/mL (≈ 74.8 µM)
Candida albicans (Ca)
  MIC: 50 µg/mL (≈ 374 µM)
Proteus vulgaris (Pv); [11]
  MIC: 50 µg/mL (≈ 374 µM)
Proteus vulgaris (Pv); [12]
  MIC: 5 µg/mL (≈ 37.4 µM)
[4]; [15]
  MIC: 50 µg/mL (≈ 374 µM)
[4]; [14]
  MIC: 5 µg/mL (≈ 37.4 µM)
[6]
  MIC: 50 µg/mL (≈ 374 µM)

## N#CC#CSc1ccc(Cl)cc1 [D, 3-(4-chlorophenylthio)-2-propynenitrile]
[1]; [7]
  MIC: < 10 µg/mL
[1]; [8]
  MIC: 50 µg/mL (≈ 258 µM)
[2]; [9]
  MIC: 25 µg/mL (≈ 129 µM)
[2]; [10]
  MIC: 100 µg/mL (≈ 516 µM)
Candida albicans (Ca); malt yeast agar
  MIC: < 1 µg/mL
Proteus vulgaris (Pv); [11]
  MIC: < 10 µg/mL
Proteus vulgaris (Pv); [12]
  MIC: 50 µg/mL (≈ 258 µM)
[3]
  MEC: 100 ppm
[4]; [13]
  MIC: < 10 µg/mL
[4]; [16]
  MIC: 25 µg/mL (≈ 129 µM)
[5]
  MEC: 100 ppm
[6]; malt yeast agar
  MIC: < 1 µg/mL
